This is an account of results in US20030118636A1, “Delivery of small hydrophilic molecules packaged into lipid vesicles” (priority 2001, published 2003).

Where two headings read alike, the source gives them in different places.

For data set [1], the target named is T1, MscL (Escherichia coli, UniProt P0A742, G22C).
T1 construct: made in house; host or cells: E. coli PB104
Type of data set: biochemical, E. coli.

Data set [2] deals with T2, MscL mutant G22C (Escherichia coli, UniProt P0A742, G22C).
T2 construct: expressed in transfected cells
T2 sequence (P0A742 2-136 G22C): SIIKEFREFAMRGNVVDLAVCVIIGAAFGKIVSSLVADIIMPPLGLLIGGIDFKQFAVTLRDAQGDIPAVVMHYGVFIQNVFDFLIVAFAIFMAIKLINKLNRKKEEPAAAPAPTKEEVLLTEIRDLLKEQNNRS
Type of data set: biochemical, E. coli. The settings on record: for kinetics of calcein release compared to MTSET: 2.5 mM MTSEA, 10 mM MTSES. The procedure:
Samples were prepared, and calcein efflux was monitored as described in examples 1 and 2A.
The membrane reconstitution mixture was incubated for 30 min. at room temperature and 40 mg of detergent-absorbing Bio-Beads SM-2 (Bio-Rad, Inc.) was added and incubated at 4° C. for 30 min. Next, 400 mg Bio-Beads were added and incubated overnight at 4° C. All steps were performed under mild agitation. Samples were prepared for calcein efflux assay as described in example 1.

Data set [3] addresses T2, MscL mutant G22C. Type of data set: biochemical, E. coli. As to the method: FIGS. 10A-10D. […] Pressure in the pipette, relative to atmospheric, is shown in the lower traces of FIGS. 10A and 10B, and recordings of the current through a cell attached patch of a spheroplast are shown in the upper traces of FIGS. 10A and 10B. […] Buffer: 200 mM KCl, 90 mM MgCl2, 110 mM CaCl2, 5 mM HEPES, pH 6.0. FIGS. 10C and 10D show the histograms of the conductivity preferences of FIGS. 10A and 10B, respectively.
FIGS. 14A-14D. […] 5 μl of G22C spheroplasts were incubated with IMI (2 mM final concentration) or with patch buffer overnight at 4° C. The next day, currents through cell-attached patches held at +20 mV were recorded for unlabeled (FIG. 14A) and labeled (FIG. 14B) proteins and histograms showing the conductance states of each recording are illustrated in FIG. 14C and FIG. 14D, respectively.
Expression, purification, membrane reconstitution, and patch clamp analysis were performed as described in Example 1 or as described below.
Giant spheroplasts were prepared as explained before (Blount, P. et al., Methods Enzymol. Vol. 294:458-482, 1999).

For data set [4] the following is noted: humans; cited from earlier work.
The conditions of data set [5]: free compound.
Experimental: The effect of drug formulation on the rate of drug release in vivo was tested in the rat by external counting of radioactivity. The model was based on liposomal formulations that remain at the subcutaneous site of administration with an encapsulated model drug which, when released, was rapidly removed from the subcutaneous site of injection and excreted into the urinary bladder.
Male Wistar rats were anaesthetized using iso-flurane O2/NO throughout the study. Liposome encapsulated MAG3 in a 0.5 ml volume was injected subcutaneously (in the neck) and accumulation of radioactivity in the urinary bladder was constantly monitored by external counting using a gamma-camera (window: 140 keV, 250 keV width, 1 min. time resolution). At the end of the study (after 40 min.), a 10 times higher dose of free MAG3 was administered subcutaneously or intravenously to measure the urinary excretion rates of those formulations.
Data set [6] is described as follows: Urinary excretion of IOT after subcutaneous injection in conscious rats. The settings on record: free IOT. Type of data set: in vivo, rat. As to the method: DOPC/DOPS (90:10, mol/mol) and DOPC/DOPE liposomes (70:30, mol/mol) were tested.
Male Wistar rats remained conscious throughout the study. To increase the resolution time, the diuretic furosemide (10 mg/kg dose s.c.) was given in the morning, 7 hours before administration of the sample. Urine was collected automatically with a 1 hour resolution. The concentration of IOT in the urine was measured by HPLC.

For data set [7] the following is noted: rat; cited from earlier work.
The target of data set [8] is T2, MscL mutant G22C. The settings on record: no tension applied (Yoshimura et al.); cited from earlier work.
Data set [9] concerns the target T2, MscL mutant G22C. In words: FITC-insulin efflux from liposomes with MscL mutant G22C (filter assay). The settings on record: 1 mM MTSET; DOPC:DOPS 9:1 liposomes with MscL mutant G22C. Type of data set: biochemical, E. coli. The procedure:
Insulin and fluorescein isothiocyanate (FITC) were obtained from Sigma (St. Louis, Mo., USA). Insulin (23 mg) was reacted with a four-fold molar ratio of FITC in 0.1 N borate buffer, pH 9.0, for 60 min. The pH was lowered to 7.5 with 0.1 N boric acid and the solution was extensively dialyzed, using a dialysis membrane with a molecular weight cut-off of 2,000 Da, for 96 hours against water at 4° C. with frequent water changes. Absorption spectra of the dialyzed sample were used to quantify the protein concentration and the stoichiometry of labeling. Concentrations of FITC and insulin were both 0.1 mM. The labeled insulin was encapsulated by three freeze-thaw cycles, followed by extrusion through a 400 nm polycarbonate membrane. The proteoliposomes containing labeled insulin were separated from free labeled insulin by using sephadex G-50 column chromatography equilibrated with 145 mM NaCl, 300 mM Sucrose, 25 mM Tris.HCl and 1 mM EDTA, pH 8.0.
Samples were taken at different time points and Triton was added as a control for maximum fluorescence (100%). Samples were filtered over a 450 nm Cellulose Nitrate filter (Schleicher & Schuell BA85). The filtrate of 2 ml was retained and the fluorescence of 200 I11 of each filtrate was monitored in an fl600 plate reader (Bio-Tek). All experiments were performed in triplicate.

Setting [10] is: DOPC:DOPS 90:10 liposomes with MscL mutant G22C.
Where [11] appears, read: 1 mM MTSET, DOPC:DOPS 90:10 liposomes with MscL mutant G22C.

T1 sequence (P0A742 2-136 G22C): as above

With `Br.BrCc1ccncc1` [BP, 4-(bromomethyl)pyridine hydrobromide], the “channel behavior of labeled MscL mutant G22C” value in data set [1] (pH 5.2, +20 mV) was “prefers not to open completely but only to subconducting states and the dwell times get shorter”; in data set [1] (pH 7.2, +20 mV) it was “behaves as an unlabeled channel”.
`COC(=O)C(I)Cc1cnc[nH]1` (stereo not shown) [IMI, methyl 2-iodo-3-(5-imidazolyl)propanoate]: the “channel state in calcein efflux assays” value in [2] (IMI labeled MscL mutant G22C, pH 7.0 and 8.0 (data not shown)) is “tendency to stay open at pH 7.0 and 8.0”. The “ratio of tension sensitivity of MscL over MscS” value in data set [3] (spheroplasts, pH 6) stood at 1.48.
In the case of mertiatide [MAG3], the active tubular secretion in data set [4] was 600 mL/min. Besides, the “time to 50% urinary excretion” value in [5] (intravenous) is 3 min; in data set [5] (subcutaneous) it was over 12 min.
Take `CNC(=O)c1c(I)c(NC(C)=O)c(I)c(C(=O)O)c1I` [IOT, Iodo-thalamate]: the “first phase urinary excretion” value in data set [6] is given as “completed in the first couple of hours”. In data set [7], the “excretion via glomerular filtration” value is listed as 1 ml.min^−1.100 g rat.
For “sodium (2-sulfonatoethyl) methane thiosulfonate [MTSES]”, the “kinetics of calcein release compared to MTSET” value in data set [2] (setting [10]) is recorded as “significantly slower”. Further, the “effect of attachment to the cysteine on gating under patch clamp” value (“effect of attachment to the cysteine” below) in [8] was “gate spontaneously”.
Turning to `C[N+](C)(C)CCSS(C)(=O)=O` [MTSET, [2-(Trimethylammonium)ethyl]methanethiosulfonate], in [2] (setting [11]), the encapsulated calcein released is recorded as 80% and the “time for half of the MscL mediated efflux” value was at most 7 s. In data set [2] (DOPC:Cholesterol 80:20 liposomes with vs without MscL mutant G22C), the “calcein release upon addition” value was “effective release of calcein”. In data set [8], the “effect of attachment to the cysteine” value was “gate spontaneously”. Further, the “FITC-insulin efflux upon activation” value in [9] is “release of FITC-insulin”. The “effect of attachment on pressure sensitivity and gating” value in data set [3] (attached to MscL mutant G22C in spheroplasts) is given as “spontaneous gating of the channel”.
Turning to “2-aminoethyl methanethiosulfonate [MTSEA]”, the “kinetics of calcein release compared to MTSET” value in [2] (setting [10]) is reported as “significantly slower”. In addition, the “effect of attachment to the cysteine” value in data set [8] was “gate spontaneously”.
